According to US9708287B2, “Chiral compounds, compositions, products and methods employing same” (Cayman Chemical Company Incorporated, priority 2012, dated 2017):

Tested on: human skin
Assay: topical administration to a human in need of beautifying
Assay type: in vivo
Details: twice daily treatments, after several weeks
Experimental: The chiral, non-racemic analog, (+) deoxyArbutin ((+)-dA), prepared as described in Example I is administered topically to a human in need of beautifying.

In the case of `Oc1ccc(OC2CCCCO2)cc1` (racemic) [(+) deoxyArbutin, 4-(tetrahydro-2H-pyran-2-yloxy)phenol], the “health and vitality of the treated areas of the skin” value is reported as “increased health and vitality” and the “pigmentation of the treated areas of the skin” value is reported as “decreased pigmentation”.
